Data from patent EP1156056A1, “5-GLYCOSYLOXY-6-HYDROXYNAPHTHO 2,3-f]QUINOLINE-7,12-DIONE HAVING ANTICANCER ACTIVITIES” (ZAIDAN HOJIN BISEIBUTSU KAGAKU KENKYU KAI, priority 1999, dated 2000).

Test system: all human cancer cells as tested
Assay: Inhibition of proliferation of cancer cells in culture, all human cancer cells as tested
Assay type: cell-based
Protocol: A culture medium for cancer cells was put into test tubes. To the culture medium in each tube, there was transplanted each of such various mouse cancer cells or human cancer cells as shown in Table 1 below. The cells so transplanted were cultivated under the conditions at 37°C in an air atmosphere containing 5 % CO2. To the medium containing the cancer cells so cultivated, there was added said Compounds A, B, D, E or F of this invention at different concentrations, as the test compound. […] As the comparative compound, adriamycin now clinically used was tested to repeat the test in the same way.
Namely, they are mouse colon cancer (colon 26), mouse B-cell lymphoma (LB32T), mouse lymphoma (L-1210), human cervical cancer (HeLa), human acute promyeloleukemia (HL60), human prostatic cancer (PC3), human pudendal squamous cell carcinoma (A431), human pulmonary carcinoma (PC6), human mastocarcinoma (MCF7), human esophageal carcinoma (TT), human prostatic cancer (LNcap) and human colon cancer (DLD-1). […]

IC50: < 100 µg/mL
Structure (SMILES): COc1c2c(c3cccnc3c1O[C@@H]1O[C@@H](C)[C@@H](O)[C@@H](O)[C@H]1F)C(=O)c1ccccc1C2=O [5-(2,6-dideoxy-2-fluoro-α-L-talopyranosyloxy)-6-methoxy-naphtho[2,3-f]-quinoline-7,12-dione]
anticancer activity: does not exhibit any appreciable anticancer activity
